Measurements from US6579888B2, “Method and kit for treating illnesses” (Opt-e-scrip, Inc., priority 1994, dated 2003).

Tests used:
[1] = system: hyperactive child (Minimum Brain Dysfunction); test: SPAS single-patient random double-blind crossover trial of methylphenidate versus placebo
Method: In this example, the usefulness of methylphenidate (Ritalin) treatment in a hyperactive child (Minimum Brain Dysfunction) is evaluated.
Technology: Consists of instructions, “calendar” packaging for drug and a substantially identical looking placebo to assure appropriate dosing and monitor compliance, questionnaire assessment forms and instructions. […] Results are mailed to the physician and, in this case, parent for use in evaluating the usefulness of the therapy. The physician and parent are contacted, e.g., every three months to provide data on therapies utilized, and perceived outcome, until the condition resolves.
The questionnaire portion of the kit includes an initial consent form for the parent or guardian to complete. The questionnaire also provides background information on the study and possible side effects associated with the medication. Also included therein is a portion for providing relevant patient and family histories. More importantly, the questionnaire, in this case includes a portion for the weekly input by parents or guardian and school observers of answers to questions relating to the drug evaluation. Typical questionnaire sheet for these portions are shown below as Table 1 and Table 2. Physician questionnaires are similarly arranged.
The trial calls for 40 mg daily given at 10 mg four times daily compared to identical appearing placebo given four times daily.

[2] = system: patients with the same disorder (hyperactive child); test: Pooled SPAS data and monthly follow-up of patients with the same disorder continued on methylphenidate; format: in vivo, human
Method: All results obtained from the data are then compared against the results provided by data amassed from a pool of about 200 patients with the same disorder. Of these 200 patients, 55 experienced encouraging results (as did the current patient) and were continued on 40 mg daily treatment. Of these 55 patients, 5 were lost to follow-up, with 50 remaining for prospective evaluation. Because the physician would now choose to continue the patient on 40 mg methylphenidate daily based solely on the isolated SPAS single patient drug trial results, they now take the opportunity of reviewing the pooled data on the 50 patients. This is done to understand under what circumstances this individual patient would likely continue to show benefit from methylphenidate 40 mg treatment, and what conditions lead to treatment failure.
The pool of 50 patients who continued treatment had the following scores following the original SPAS testing:
All 50 patients were followed up by telephone interview monthly for nine months or more, and outcomes were prospectively documented.

hypertensive person = test: Six-week random double-blind trial of sustained release verapamil as therapeutic alternative to sustained release propranolol; format: in vivo, human; details: verapamil SR 240 mg once daily versus propranolol SR 180 mg once daily; end of six-week trial; statistically insignificant
Method: In this example, the validity of using a sustained release formulation of verapamil 240 mg once daily as a therapeutic alternative to sustained release propranolol 180 mg once daily in a hypertensive person is shown. The trial during which the two medications are randomly administered in a double-blind manner is six weeks. The questionnaire used is set up in a manner similar to that described in above examples except that the questions elicit information related to the disease of hypertension. Blood pressure is taken daily by the patient and weekly by the physician. Lab values and vision tests are also reported weekly by the physician. […] Both values are statistically insignificant and the therapeutic alternative selection is objectively validated.

[3] = patients with statistically altered sleep patterns, continued 40 mg daily
[4] = pool of 50 patients, original SPAS testing

SMILES	patient's attention span ([1]; 40 mg daily (10 mg four times daily), methylphenidate periods versus placebo periods)	teacher comments ([1]; 40 mg daily, methylphenidate dosing periods)	sleep patterns ([1]; 40 mg daily, methylphenidate periods)	outcome on continued treatment, patients with no statistically altered sleep disturbances ([2]; 40 mg daily, monthly follow-up for nine months or more)	outcome on continued treatment, patients with statistically altered sleep patterns ([2]; 40 mg daily, within two months)	discontinuation from treatment ([2]; all patients with a statistically altered sleep disturbance)	patients who experienced encouraging results and were continued on treatment ([2]; of a pool of about 200 patients, 40 mg daily) [patients]	patients who experienced a grand mal seizure [2, 3]	severe episodes of bizarre behaviors / severe adverse event [2, 3] [%]	Attention Span: patients who had substantial improvement ([2]; pool of 50 patients who continued treatment, original SPAS testing) [% had substantial]	Sleep Patterns: patients not statistically altered [2, 4] [% were not statistically]	Sleep Patterns: patients statistically altered [2, 4]	Teacher Comments: corroborate improved attention span [2, 4] [% corroborate improved]	Teacher Comments: did not corroborate improved attention span [2, 4] [% did not corroborate]	mean diastolic pressure (hypertensive person)	mean systolic blood pressure increase (hypertensive person) [%]
COC(=O)C(c1ccccc1)C1CCCCN1 (stereo not shown) [methylphenidate]	improved substantially	corroborate improved attention span	statistically altered	continued to be well maintained on treatment	showed loss of symptom control	had to be discontinued from treatment within two months	55	two	90	100	50	50% were statistically altered	80	20		
COc1ccc(CCN(C)CCCC(C#N)(c2ccc(OC)c(OC)c2)C(C)C)cc1OC (stereo not shown) [verapamil]															essentially stable	3
